Assay results: patent US20230083973A1, “SUBSTITUTED CYCLOPROPYL-2,2'-BIP[…], ANALOGUES THEREOF, AND METHODS USING SAME” (priority 2019, published 2023)
Where two headings read alike, the source gives them in different places.

Test system: HBsAg
Test: HBsAg assay: inhibition of HBsAg in HepG2.2.15 cells (chemiluminescence immunoassay of supernatant)
Format: cell-based, hepatitis B virus
Conditions: HBsAg in supernatant at day 6 after exposure to compound, 0.5% DMSO
In short: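 Secreted HBsAg quantified by CLIA in day-6 supernatants of HepG2.2.15 cultures given compound dilutions at 0.5% final DMSO, with one compound/medium replenishment after 2–3 days. Dose-response fits gave EC50 (50% inhibition); viability checked separately by CellTiter-Glo.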

[1] = Hepatitis B virus, HepG2.2.15, 144 h, read-out: sAg EC50, HepG2.2.15 cells
[2] = read-out: sAg EC50, HepG2.2.15 cells

Row | Structure (SMILES) | EC50 [1] [nM] | EC50 [2] [nM]
1 | COc1cc2ncn(-c3cc([C@@H]4C[C@H]4c4cnc(-c5ncccn5)nc4)cc(F)c3F)c2cc1OC (relative stereo) [Example 237, trans-1-(5-(2-([2,2′-Bipyrimidin]-5-yl)cyclopropyl)-2,3-difluorophenyl)-5,6-dimethoxy-1H-benzo [d]imidazole] | 200 | 
2 | COc1cc([C@@H]2C[C@H]2c2cnc(-c3ccccn3)nc2)cc(OC)c1F (relative stereo) [Example 175, trans-5-(2-(4-Fluoro-3,5-dimethoxyphenyl)cyclopropyl)-2-(pyridin-2-yl)pyrimidine] | 350 | 
3 | Fc1ccc([C@@H]2C[C@H]2c2cnc(-c3ncccn3)nc2)c2ccccc12 (relative stereo) [Example 168, trans-5-(2-(4-Fluoronaphthalen-1-yl)cyclopropyl)-2,2′-bipyrimidine] | 36 | 
4 | CCc1cc(F)c(OC)cc1C1CC1c1cnc(-c2ncccn2)nc1 (single isomer, unassigned) [Example 36, trans-5-(2-(2-Ethyl-4-fluoro-5-methoxyphenyl)cyclopropyl)-2,2′-bipyrimidine] |  | 720
5 | COc1cc(C2CC2c2cnc(-c3ncccn3)c3ccccc23)ccc1F (single isomer, unassigned) [Example 193, trans-4-(2-(4-Fluoro-3-methoxyphenyl)cyclopropyl)-1-(pyrimidin-2-yl)isoquinoline] | 43000 | 
6 | O[C@@H]1CCN(c2cc(C3CC3c3cnc(-c4ncccn4)nc3)cc(Cl)c2F)C1 (single isomer, unassigned) [Example 127] |  | 110
7 | Fc1cc([C@@H]2C[C@H]2c2cnc(-c3ncccn3)nc2)cc(F)c1OCCCN1CCOCC1 (relative stereo) [Example 241, trans-4-(3-(4-(2-([2,2′-Bipyrimidin]-5-yl)cyclopropyl)-2,6-difluorophenoxy)propyl)morpholine] | 830 | 
8 | Fc1ccc(C2CC2c2cnc(-c3ncccn3)nc2)cc1N1CCC1 (single isomer, unassigned) [Example 83, trans-5-(2-(3-(Azetidin-1-yl)-4-fluorophenyl)cyclopropyl)-2,2′-bipyrimidine] |  | 35
9 | CCc1nc(-c2ncccn2)ncc1C1CC1c1ccc(F)c(OC)c1 (single isomer, unassigned) [Example 76, trans-4-Ethyl-5-(2-(4-fluoro-3-methoxyphenyl)cyclopropyl)-2,2′-bipyrimidine] |  | 2000
10 | COc1cc(C2CN(c3cc([C@@H]4C[C@H]4c4cnc(-c5ncccn5)nc4)cc(F)c3F)C2)ccc1F (relative stereo) [Example 215, trans-5-(2-(3,4-Difluoro-5-(3-(4-fluoro-3-methoxyphenyl)azetidin-1-yl)phenyl)cyclopropyl)-2,2′-bipyrimidine] | 70 | 
11 | COc1cc(C2CC2c2cnc(-c3ncccn3)nc2)cc(OC)c1Cl (single isomer, unassigned) [Example 99, trans-5-(2-(4-Chloro-3,5-dimethoxyphenyl)cyclopropyl)-2,2′-bipyrimidine] |  | 3000
12 | COc1cc(C2CC2c2cnc(-c3ncccn3)nc2)c(F)cc1Cl (single isomer, unassigned) [Example 87, trans-5-(2-(4-Chloro-2-fluoro-5-methoxyphenyl)cyclopropyl)-2,2′-bipyrimidine] |  | 140
13 | Fc1cc(C2CC2c2cnc(-c3ncccn3)nc2)cc(N2CCCC2)c1F (single isomer, unassigned) [Example 92, trans-5-(2-(3,4-Difluoro-5-(pyrrolidin-1-yl)phenyl)cyclopropyl)-2,2′-bipyrimidine] | 24 | 
14 | COc1cc(C2CC2c2cnc(-c3ncccn3)nc2-c2ccc3nc(C)sc3c2)ccc1F (single isomer, unassigned) [Example 140, trans-6-(5-(2-(4-Fluoro-3-methoxyphenyl)cyclopropyl)-[2,2′-bipyrimidin]-4-yl)-2-methylbenzo[d]thiazole] |  | 37000
